# According to PubChem BioAssay AID328 (DTP/NCI, 2004):
# “And” between values parts separate entries of the source, which are not always exact repeats. Equal entries are not always repeated. Inconclusive results and toxic doses are left out.
# System: BDF1 mice, P388 leukemia ip, median survival T/C
# Experiment: NCI In Vivo Anticancer Drug Screen. Data for tumor model P388 Leukemia (intraperitoneal) in B6D2F1 (BDF1) mice
# Conditions: endpoint: median survival time, higher = longer survival
# Procedure, shortened: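 Read-out is survival of treated animals expressed relative to the vehicle group, as a T/C ratio.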
# [1] = dose: 3.12 mg/kg/injection, schedule: Q01DX009 (ip), vehicle: saline
# [2] = dose: 6.25 mg/kg/injection, schedule: Q01DX009 (ip), vehicle: saline
# [3] = dose: 12.5 mg/kg/injection, schedule: Q01DX009 (ip), vehicle: saline
# [4] = dose: 25.0 mg/kg/injection, schedule: Q01DX009 (ip), vehicle: saline
# [5] = dose: 12.5 mg/kg/injection, schedule: Q04DX003 (ip), vehicle: saline
# [6] = dose: 25.0 mg/kg/injection, schedule: Q04DX003 (ip), vehicle: saline
# [7] = dose: 50.0 mg/kg/injection, schedule: Q04DX003 (ip), vehicle: saline
# [8] = dose: 100.0 mg/kg/injection, schedule: Q04DX003 (ip), vehicle: saline
# [9] = dose: 200.0 mg/kg/injection, schedule: Q04DX003 (ip), vehicle: saline
# [10] = dose: 100.0 mg/kg/injection, schedule: Q01DX009 (ip), vehicle: saline
# [11] = dose: 50.0 mg/kg/injection, schedule: Q01DX009 (ip), vehicle: saline with Tween-80
# [12] = dose: 100.0 mg/kg/injection, schedule: Q04DX003 (ip), vehicle: saline with Tween-80
# [13] = dose: 400.0 mg/kg/injection, schedule: Q04DX003 (ip), vehicle: saline with Tween-80
structure (smiles),measurement,setting,value
Cc1ccc2c3csc4ccccc4c-3nc2c1,T/C,"dose: 1.56 mg/kg/injection, schedule: Q01DX009 (ip), vehicle: saline",113 % of control
same,T/C,[1],113 % of control
same,T/C,[2],113 % of control
same,T/C,[3],100 % of control and 111 % of control
same,T/C,"dose: 18.0 mg/kg/injection, schedule: Q01DX009 (ip), vehicle: saline",118 % of control
same,T/C,[4],104 % of control
CS(=O)(=O)OCCN1CCC2(CC1)SSC1(CCN(CCOS(C)(=O)=O)CC1)S2,T/C,[1],95 % of control and 96 % of control
same,T/C,[2],115 % of control
same,T/C,"dose: 7.5 mg/kg/injection, schedule: Q04DX003 (ip), vehicle: saline",122 % of control
same,T/C,"dose: 10.0 mg/kg/injection, schedule: Q01DX009 (ip), vehicle: saline",154 % of control
same,T/C,[3],109 % of control and 115 % of control
same,T/C,[5],122 % of control
OCCCC1CCCCN1 (centres undefined),T/C,[6],115 % of control
same,T/C,[7],100 % of control
same,T/C,[8],105 % of control
c1ccc(Nc2ncc3cnccn23)cc1,T/C,[5],95 % of control
same,T/C,[6],105 % of control
same,T/C,[7],92 % of control
same,T/C,[8],103 % of control
same,T/C,[9],97 % of control and 101 % of control
same,T/C,"dose: 300.0 mg/kg/injection, schedule: Q04DX003 (ip), vehicle: saline",115 % of control
C[n+]1cccc2ccccc21,T/C,[3],95 % of control
same,T/C,[5],104 % of control
same,T/C,[4],100 % of control and 105 % of control
same,T/C,[6],104 % of control
same,T/C,"dose: 50.0 mg/kg/injection, schedule: Q01DX009 (ip), vehicle: saline",100 % of control and 110 % of control
same,T/C,[7],109 % of control
same,T/C,[10],109 % of control
CC(=O)n1nc(Cl)c2ccc([N+](=O)[O-])cc21,T/C,[11],97 % of control
same,T/C,"dose: 100.0 mg/kg/injection, schedule: Q01DX009 (ip), vehicle: saline with Tween-80",100 % of control
same,T/C,"dose: 200.0 mg/kg/injection, schedule: Q01DX009 (ip), vehicle: saline with Tween-80",100 % of control
NC(=O)N(CCO)CCO,T/C,[10],100 % of control
same,T/C,[8],100 % of control
same,T/C,"dose: 200.0 mg/kg/injection, schedule: Q01DX009 (ip), vehicle: saline",90 % of control
same,T/C,[9],100 % of control
same,T/C,"dose: 400.0 mg/kg/injection, schedule: Q01DX009 (ip), vehicle: saline",100 % of control
same,T/C,"dose: 400.0 mg/kg/injection, schedule: Q04DX003 (ip), vehicle: saline",100 % of control
Nc1nc(Cl)c(C=O)c(Cl)n1,T/C,[11],241 % of control
CC(/C=C/c1ccccc1)=Nc1ccc(C)cc1,T/C,[12],104 % of control
same,T/C,"dose: 200.0 mg/kg/injection, schedule: Q04DX003 (ip), vehicle: saline with Tween-80",101 % of control
same,T/C,[13],104 % of control
ClC(Cl)(Cl)C1OCOC(C(Cl)(Cl)Cl)OCO1 (centres undefined),T/C,"dose: 100.0 mg/kg/injection, schedule: Q04DX003 (ip), vehicle: Klucel (hydroxypropylcellulose) (HPC)",90 % of control
same,T/C,"dose: 200.0 mg/kg/injection, schedule: Q04DX003 (ip), vehicle: Klucel (hydroxypropylcellulose) (HPC)",100 % of control
same,T/C,"dose: 400.0 mg/kg/injection, schedule: Q04DX003 (ip), vehicle: Klucel (hydroxypropylcellulose) (HPC)",90 % of control
CCCCCCCCCCCC(=O)Nc1ccc(C(=O)OCC)cc1,T/C,"dose: 100.0 mg/kg/injection, schedule: Q01DX001 (ip), vehicle: saline with Tween-80",91 % of control
same,T/C,"dose: 200.0 mg/kg/injection, schedule: Q01DX001 (ip), vehicle: saline with Tween-80",87 % of control
same,T/C,"dose: 400.0 mg/kg/injection, schedule: Q01DX001 (ip), vehicle: saline with Tween-80",91 % of control
O=c1[nH]c2c(ccc3cccnc32)c2c1CCC2,T/C,[12],92 % of control
same,T/C,[13],93 % of control
